This note sets out measurements from patent US20240299469A1, “PRODUCTION OF INDOLE-DERIVED METABOLITES BY SHELF-STABLE COMMUNITIES OF SAFE BACTERIA” (Imvela Corp., priority 2023, published 2024).

This data set in a line: Storage stability in pet chew matrix. It is filed as physicochemical. Conditions: water activity (aw) 0.4, 4 weeks of storage. As to the method:
Stability of Bacillus Strains 1-3 was measured in a pet chew matrix with water activity (aw) level of 0.4, which is typically growth-prohibitive for other bacteria such as Lactobacillus. While Lactobacillus viability declined over 4 weeks of storage, Bacillus Strains 1-3 remained viable for 4 weeks, with loss of viability being less than <0.5 log 10 (FIGS. 3B and 3D).

In the case of Lactobacillus, the viability over storage entry is “declined”.
